Assays:
C2C12 myotubes = experiment: Characterization of RNLE activity: pretreated extract, BrdU S phase reentry in C2C12 myotubes; type: cell-based, mouse; details: C2C12 myotubes with RNLE
Experimental: C2C12 myotubes were plated at low density in DM as described above. Regeneration extract was treated in one of three ways: (1) boiled for 5 minutes; (2) digested with 1% trypsin for 30 minutes at 37° C.; or (3) taken through several freeze/thaw cycles. In three separate experiments, the treated extracts were applied to cultured myotubes at a concentration of 0.3 mg/ml with media and extract changed daily. Immediately after the extract was digested with 1% trypsin, the trypsin was inactivated by dilution in DM in which the cells were cultured. In the freeze/thaw experiments, extract activity was tested after both 2 and 3 freeze/thaw cycles. The effect of the pretreated extracts on myotube S phase reentry was assessed after 4 days of treatment by performing BrdU incorporation assays. The results were compared to BrdU incorporation in myotubes cultured in DM containing RNLE (positive control) and myotubes cultured in DM alone or DM containing nonRNLE (negative controls).
The dedifferentiation signal(s) found in the RNLE could belong to a number of different types of biomolecules, including proteins, lipids, nucleic acids, and polysaccharides. To characterize the nature of one or more of the active components of the RNLE, the inventors subjected the extract to a number of different conditions. […]

zebrafish embryos = experiment: Application to developing zebrafish embryos; type: in vivo; details: at the IC50 concentration (printed 10-20 μl)
Experimental: The IC50 of Ri with respect to Fgfrl activity in mammalian cells was shown previously to be […] (Mohammadi et al., 1997). […] Such embryos appear remarkably similar to those injected with mRNA encoding a dominant-negative Fgfrl (Griffin et al., 1995).

[1] = system: zebrafish caudal fin regenerate; experiment: Zebrafish caudal fin regeneration under Fgfr1 inhibitor treatment; type: in vivo
Experimental: Zebrafish 3-6 months of age were obtained from EKKWill Waterlife Resources (Gibsonton, Fla.) and used for caudal fin amputations. Fish were anaesthetized in tricaine and amputations were made using a razor blade, removing one-half of the fin. Animals were allowed to regenerate for various times in water kept at 31-33° C.; these temperatures facilitate more rapid regeneration than more commonly used temperatures of 25-28° C. (Johnson and Weston, 1995). Fish were then anaesthetized and the fin regenerate was removed for analyses.
(§1) SU5402 (Ri; SUGEN, South San Francisco, Calif.) was dissolved in dimethylsulfoxide (DMSO) and added to fish water at a final concentration of 1.7 μM or 17 μM (0.01% DMSO). Up to 10 fish were treated in one liter of water, and tanks were maintained in the dark at 31-33° C. with SU5402 solutions replaced every 24 hours.
To determine if signaling through Fgfrl is required for regeneration, zebrafish were treated for 96 hours with Ri immediately following amputation. Treatment of zebrafish with 1.7 μM Ri (0.5 mg/liter) inhibited fin regeneration to varying degrees.
To determine if a blastema forms in the absence of Fgf signaling, Ri-treated fin regenerates were examined morphologically.
Because wfgf and fgfr1 expression domains were maintained in the fin regenerate during outgrowth, and as blastemal cell BrdU incorporation was blocked by Ri, Fgf signaling likely participates in blastemal maintenance/regenerative outgrowth. To test this hypothesis, the effects of Ri on ongoing regenerates were examined.

zebrafish fin regenerate [2] = experiment: Whole mount in situ hybridization of marker genes in zebrafish fin regenerates; type: in vivo
Source text: To generate antisense RNA probes with a dioxigenin labeling kit (Boehringer Mannheim), a 2.8 kb fgfr1 cDNA fragment, a 1.7 kb fgfr2 cDNA fragment, a 0.6 kb fgfr3 cDNA fragment, a 1.5 kb fgfr4 cDNA fragment (Thisse et al., 1995), a 1.2 kb msxb cDNA fragment, a 2.0 kb msxc cDNA (Akimenko et al., 1995), a 0.6 kb fgf8(ace) cDNA fragment (Reifers et al., 1998), a 2.2 kb fgf4.1 cDNA (Draper et al., 1999), a 2.4 kb wfgf cDNA (Draper et al., 1999), a 3.8 kb β-catenin cDNA (Kelly et al., 1995), a 2.6 kb flkl cDNA fragment (Liao et al., 1997), and a 1.8 kb shh cDNA (Krauss et al., 1993) were used. Fragments containing zebrafish fgfr cDNA sequences were isolated by degenerate PCR using known fgfr tyrosine kinase domain sequences of other species. The assignment of fgfr genes was based on homology comparisons; these sequences have been deposited in Genbank.
Fin regenerates were fixed overnight at 4° C. in 4% paraformaldehyde in phosphate-buffered saline (PBS), washed briefly in 2 changes of PBS, and transferred to methanol for storage at −20° C. Fins were rehydrated stepwise through ethanol in PBS and then washed in 4 changes of PBS-0.1% polyoxyethylenesorbitan monolaurate (Tween-20; PBT). Then, fins were incubated with 10 μg/ml proteinase K in PBT for 30 minutes and rinsed twice in PBT before 20 minutes refixation. After five washes with PBT, fins were prehybridized at 65° C. for one hour in buffer consisting of 50% formamide, 5×SSC (750 mM NaCl, 75 mM sodium citrate, pH 7.0), 0.1% Tween-20, 50 μg/ml heparin, and 500 μg/ml yeast RNA (pH to 6.0 with citric acid), and then hybridized overnight in hybridization buffer including 0.5 μg/ml dioxigenin-labeled RNA probe. Fins were washed at 65° C. for 10 minutes each in 75% hybridization buffer/25% 2×SSC, 50% hybridization buffer/50% 2×SSC, and 25% hybridization buffer/75% 2×SSC, followed by 2 washes for 30 minutes each in 0.2×SSC at 65° C. Further washes for 5 minutes each were done at room temperature in 75% 0.2×SSC/25% PBT, 50% 0.2×SSC/50% PBT, and 25% 0.2×SSC/75% PBT. After a one hour incubation period in PBT with 2 mg/ml bovine serum albumin, fins were incubated for 2 hours in the same solution with a 1:2000 dilution of fin-preabsorbed, anti-dioxigenin antibody coupled to alkaline phosphatase (Boehringer Mannheim). For the alkaline phosphatase reaction, fins were first washed 3 times in reaction buffer (100 mM Tris-HCl pH 9.5, 50 mM MgCl2, 100 mM NaCl, 0.1% Tween-20, 1 mM levamisol) and then incubated in reaction buffer with 1× nitro blue terazolium/5-bromo-4-chloro-3-indolyl-phosphate (NBT/BCIP) substrate. In general, positive signals were obtained in 0.5-3 hours. Following the staining reaction, fins were washed in several changes of PBT and fixed in 4% paraformaldehyde in PBS. To obtain sections of fin regenerates, fins were first mounted in 1.5% agarose/5% sucrose and then incubated in 30% sucrose overnight. Frozen blocks were sectioned at 14 μm and observed using Nomarski optics.
For each probe, at least 7 fins were examined for expression at 0, 6, 12, 18, 24, 48, and 96 hours post-amputation. For 18, 24, and 48 hour timepoints with fgfr1, msxb, msxc, and wfgf probes, 25-100 fins were examined in several different experiments. Experiments with sense strand RNA probes were performed with initial antisense experiments to estimate the specificity of signals. To assess gene expression in pharmacologically treated fins, an equal number of untreated fins were also examined.
To investigate the molecular effects of this outgrowth inhibition by Ri, marker expression was examined following a 24 hour R1 application period. […] Similar effects on msxc expression were observed (n=8). msxb expression was not detected in 24 or 48 hour fin regenerates exposed to R1 for 48 hours (n=18). Thus, Fgf signaling is required for blastema maintenance and regenerative outgrowth, but is not crucial for other processes including melanocyte migration or bone deposition. […]

zebrafish fin regenerate [3] = experiment: BrdU incorporation in regenerating zebrafish fins; type: in vivo; details: 17 μM
Experimental: BrdU was dissolved in PBS and fish were treated at a final concentration of 100 μg/ml. For one experiment, fins were amputated and allowed to regenerate for 18 or 24 hours in the absence or presence of 17 μM Ri, with BrdU present during the final 6 hours of regeneration. To test the effects of Ri on proliferation in the established blastema, fins were first allowed to regenerate for 40 hours. Then, untreated fish regenerated an additional 2 hours before a 6 hour incubation with BrdU, while Ri-treated fish underwent a 2 hour R1 preincubation period before a 6 hour period with both Ri and BrdU.
Fins were collected and fixed in 70% ethanol/2 mM glycine overnight, and 10 μm sections were made from frozen blocks. These sections were stained for BrdU incorporation using a detection kit (Roche; Basel, Switzerland), and counterstained with hematoxylin. Sections from untreated and Ri-treated fins were simultaneously processed and developed. […]
BrdU incorporation was used to analyze DNA replication and cellular proliferation. […] To determine if blastemal cells underwent DNA replication in the presence of Ri, BrdU incorporation in fins briefly treated with Ri during regenerative outgrowth (40-48 hours postamputation) was analyzed. […]

[4] = molecular target: T1, epidermal growth factor receptor (Homo sapiens, UniProt P00533); details: mammalian cells; cited from earlier work
T1 construct: host or cells: mammalian cells (not specified)
T1 sequence (P00533 25-1210): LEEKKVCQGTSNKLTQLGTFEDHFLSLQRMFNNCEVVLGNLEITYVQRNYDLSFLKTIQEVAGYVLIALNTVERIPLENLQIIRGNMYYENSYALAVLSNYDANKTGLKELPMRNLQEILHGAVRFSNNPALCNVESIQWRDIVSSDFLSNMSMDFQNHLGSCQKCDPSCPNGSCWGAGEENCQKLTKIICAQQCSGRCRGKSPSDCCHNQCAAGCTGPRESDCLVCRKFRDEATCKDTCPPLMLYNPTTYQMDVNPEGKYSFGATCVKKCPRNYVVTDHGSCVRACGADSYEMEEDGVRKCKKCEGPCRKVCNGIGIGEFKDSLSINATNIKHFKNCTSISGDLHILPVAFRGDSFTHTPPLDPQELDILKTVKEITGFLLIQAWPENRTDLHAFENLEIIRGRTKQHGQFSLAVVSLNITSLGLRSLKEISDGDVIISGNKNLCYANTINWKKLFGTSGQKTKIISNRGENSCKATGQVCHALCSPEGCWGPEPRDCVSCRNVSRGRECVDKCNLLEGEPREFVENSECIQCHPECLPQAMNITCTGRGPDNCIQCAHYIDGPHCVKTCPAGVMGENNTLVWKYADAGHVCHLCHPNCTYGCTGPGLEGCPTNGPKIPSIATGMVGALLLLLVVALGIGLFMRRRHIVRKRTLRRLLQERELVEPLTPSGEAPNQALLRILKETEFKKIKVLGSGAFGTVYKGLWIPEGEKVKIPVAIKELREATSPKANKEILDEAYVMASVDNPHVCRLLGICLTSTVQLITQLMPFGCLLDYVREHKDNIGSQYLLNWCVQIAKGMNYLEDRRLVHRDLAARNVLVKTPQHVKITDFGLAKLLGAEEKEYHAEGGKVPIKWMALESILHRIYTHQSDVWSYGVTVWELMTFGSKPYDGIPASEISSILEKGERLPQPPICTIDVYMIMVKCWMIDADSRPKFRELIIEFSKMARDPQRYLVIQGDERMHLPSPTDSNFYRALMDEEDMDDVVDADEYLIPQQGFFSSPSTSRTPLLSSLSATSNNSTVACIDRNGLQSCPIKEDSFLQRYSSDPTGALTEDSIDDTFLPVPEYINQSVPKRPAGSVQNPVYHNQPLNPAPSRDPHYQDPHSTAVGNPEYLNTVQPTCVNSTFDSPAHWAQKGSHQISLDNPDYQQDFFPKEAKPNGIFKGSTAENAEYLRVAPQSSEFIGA

insulin receptor = molecular target: T2, insulin receptor (Homo sapiens, UniProt P06213); details: mammalian cells; cited from earlier work
T2 construct: host or cells: mammalian cells (not specified)
T2 sequence (P06213 28-1382): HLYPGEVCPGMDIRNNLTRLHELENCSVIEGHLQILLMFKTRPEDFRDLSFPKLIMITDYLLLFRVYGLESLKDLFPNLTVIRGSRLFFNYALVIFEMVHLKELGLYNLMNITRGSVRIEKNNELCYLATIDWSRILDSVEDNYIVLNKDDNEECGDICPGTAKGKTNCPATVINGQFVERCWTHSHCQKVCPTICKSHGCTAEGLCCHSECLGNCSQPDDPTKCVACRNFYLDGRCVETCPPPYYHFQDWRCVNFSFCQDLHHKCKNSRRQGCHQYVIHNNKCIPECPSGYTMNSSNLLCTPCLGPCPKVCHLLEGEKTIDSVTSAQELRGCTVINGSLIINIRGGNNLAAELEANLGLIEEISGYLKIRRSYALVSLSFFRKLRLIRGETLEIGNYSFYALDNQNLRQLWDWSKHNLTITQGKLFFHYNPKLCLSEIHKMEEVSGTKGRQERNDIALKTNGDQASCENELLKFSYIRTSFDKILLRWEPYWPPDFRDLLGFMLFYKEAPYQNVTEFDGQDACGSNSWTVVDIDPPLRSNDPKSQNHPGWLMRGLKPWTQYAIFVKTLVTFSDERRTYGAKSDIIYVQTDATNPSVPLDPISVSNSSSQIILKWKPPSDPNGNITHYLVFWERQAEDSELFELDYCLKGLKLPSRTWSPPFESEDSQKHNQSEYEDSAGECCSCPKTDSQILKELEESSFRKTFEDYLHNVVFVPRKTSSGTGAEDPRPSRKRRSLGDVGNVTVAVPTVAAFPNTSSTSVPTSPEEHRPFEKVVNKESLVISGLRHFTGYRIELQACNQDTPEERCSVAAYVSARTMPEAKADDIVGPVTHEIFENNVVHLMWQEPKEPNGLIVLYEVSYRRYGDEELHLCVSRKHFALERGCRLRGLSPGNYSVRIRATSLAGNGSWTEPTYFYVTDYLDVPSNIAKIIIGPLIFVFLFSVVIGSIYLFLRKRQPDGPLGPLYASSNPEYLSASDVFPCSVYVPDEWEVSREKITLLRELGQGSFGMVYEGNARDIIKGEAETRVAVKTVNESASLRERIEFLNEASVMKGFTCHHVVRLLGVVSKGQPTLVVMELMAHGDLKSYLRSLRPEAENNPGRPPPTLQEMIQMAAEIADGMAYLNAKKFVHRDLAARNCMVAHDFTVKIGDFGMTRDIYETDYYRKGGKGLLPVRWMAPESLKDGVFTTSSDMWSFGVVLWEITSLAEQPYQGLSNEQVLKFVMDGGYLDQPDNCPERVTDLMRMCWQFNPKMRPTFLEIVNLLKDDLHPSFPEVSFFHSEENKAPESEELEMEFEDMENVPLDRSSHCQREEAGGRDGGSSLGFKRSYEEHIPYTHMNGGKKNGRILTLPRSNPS

[5] = Tolerability of inhibitor solution in adult zebrafish; type: in vivo; details: 1.7 μM or 17 μM in fish water, 0.01% DMSO
Experimental: as §1

[6] = molecular target: Flkl, a vascular endothelial growth factor receptor (Homo sapiens, UniProt P35968); details: cited from earlier work
Sequence of Flkl, a vascular endothelial growth factor receptor (P35968 20-1356): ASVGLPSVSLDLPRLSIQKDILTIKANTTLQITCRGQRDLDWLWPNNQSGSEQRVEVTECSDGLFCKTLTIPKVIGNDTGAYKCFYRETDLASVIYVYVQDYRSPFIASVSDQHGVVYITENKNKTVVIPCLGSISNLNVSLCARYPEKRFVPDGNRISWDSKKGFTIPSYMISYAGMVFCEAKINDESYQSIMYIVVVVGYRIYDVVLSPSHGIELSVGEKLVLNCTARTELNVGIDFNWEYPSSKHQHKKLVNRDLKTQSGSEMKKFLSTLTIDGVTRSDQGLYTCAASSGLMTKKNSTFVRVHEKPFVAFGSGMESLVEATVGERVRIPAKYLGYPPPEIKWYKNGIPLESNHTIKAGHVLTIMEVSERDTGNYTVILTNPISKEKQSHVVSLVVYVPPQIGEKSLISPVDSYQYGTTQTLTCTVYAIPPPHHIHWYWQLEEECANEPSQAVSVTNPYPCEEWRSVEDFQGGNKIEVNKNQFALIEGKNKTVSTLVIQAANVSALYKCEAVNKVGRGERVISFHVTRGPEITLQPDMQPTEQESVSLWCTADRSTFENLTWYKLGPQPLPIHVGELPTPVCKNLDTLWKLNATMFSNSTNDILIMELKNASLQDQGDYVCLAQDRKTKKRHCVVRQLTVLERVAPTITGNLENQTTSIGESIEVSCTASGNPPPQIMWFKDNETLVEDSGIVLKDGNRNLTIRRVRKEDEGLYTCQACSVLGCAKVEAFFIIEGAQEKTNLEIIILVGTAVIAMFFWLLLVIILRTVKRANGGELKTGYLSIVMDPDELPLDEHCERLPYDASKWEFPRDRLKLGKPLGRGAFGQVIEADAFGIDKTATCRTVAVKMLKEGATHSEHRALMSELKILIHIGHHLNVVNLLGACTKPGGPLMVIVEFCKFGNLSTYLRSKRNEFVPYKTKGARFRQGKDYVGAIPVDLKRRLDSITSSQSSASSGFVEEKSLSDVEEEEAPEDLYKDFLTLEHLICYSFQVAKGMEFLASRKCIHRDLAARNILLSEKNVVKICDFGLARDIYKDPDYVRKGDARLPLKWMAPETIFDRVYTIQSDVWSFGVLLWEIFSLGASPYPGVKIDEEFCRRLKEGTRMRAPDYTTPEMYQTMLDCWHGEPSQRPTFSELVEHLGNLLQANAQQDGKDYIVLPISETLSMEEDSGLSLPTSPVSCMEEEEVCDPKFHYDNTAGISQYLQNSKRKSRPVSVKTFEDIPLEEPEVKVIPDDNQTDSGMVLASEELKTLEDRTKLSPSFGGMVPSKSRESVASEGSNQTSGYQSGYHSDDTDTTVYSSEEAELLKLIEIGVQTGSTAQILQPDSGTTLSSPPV

[7] = system: platelet-derived growth factor receptor; details: mammalian cells; cited from earlier work
serine threonine kinases = details: cited from earlier work
[8] = 1.7 μM (0.5 mg/liter), 96 hours from amputation, of 10 fins examined
[9] = Ri-treated fin regenerates, morphology
[10] = fins regenerated normally 24 or 48 hours, then 24 hour application, of 18 treated fins
[11] = treated from amputation, msxb: 21 fins, msxc: 8 fins

In the case of `Cc1c[nH]c(/C=C2\C(=O)Nc3ccccc32)c1CCC(=O)O` [SU5402], the “BrdU: effect of Fgfr inhibitor on RNLE S phase reentry” value (C2C12 myotubes) is reported as “No effect”, the “Effect on developing zebrafish embryos” value (zebrafish embryos) is reported as “dramatic truncation of posterior structures” and the “Fins that regenerated normally” value [1, 8] is reported as 4. For the same compound, the “Fins with a regenerative block” value [1, 8] was “one”, the “Fins with slight regenerative defects” value [1, 8] was 5 and the Fin regeneration ([1]; 17 μM (5 mg/liter), 96 hours from amputation, all animals, n=9) was “complete regenerative blocks”. For the same compound, the Blastemal morphogenesis [1, 9] was “did not occur”, the “Wound epidermis over the fin stumps” value [1, 9] was “consistently formed” and the “Outgrowth of ongoing regenerates” value ([1]; treatment of 24-72 hour fin regenerates) was “inhibited further outgrowth”. For the same compound, the New bone deposition ([1]; treatment of ongoing fin regenerates) was “not interrupted”, the “msxb expression after 48 hour exposure” value (zebrafish fin regenerate [2]; 24 or 48 hour fin regenerates exposed for 48 hours, n=18) was “not detected” and the “Fins with detectable shh transcripts” value (zebrafish fin regenerate [2]; 48 or 72 hour fin regenerates treated for 24 hours, of 18 fins) was 0. For the same compound, the Epidermal wfgf expression (zebrafish fin regenerate [2]; 48 or 72 hour regenerates, 24 hour application, n=16) was “No significant reduction”, the β-catenin expression (zebrafish fin regenerate [2]; Ri-treated fins, n=7) was “normal” and the “Fins with low levels of msxb expression” value (zebrafish fin regenerate [2]; [10]) was 8. For the same compound, the “Fins with no detectable msxb expression” value (zebrafish fin regenerate [2]; [10]) was 10, the “msxb and msxc expression, 24 hour regenerates” value (zebrafish fin regenerate [2]; [11]) was “extremely low or undetectable” and the “msxb and msxc expression, 48 hour regenerates” value (zebrafish fin regenerate [2]; [11]) was “undetectable”. For the same compound, the “Proximal mesenchymal cell BrdU labeling” value (zebrafish fin regenerate [3]; 12-18 hours and 18-24 hours postamputation) was “Normal”, the “Blastemal cell incorporation of BrdU” value (zebrafish fin regenerate [3]; brief treatment during regenerative outgrowth, 40-48 hours postamputation) was “greatly reduced” and the “Concentration at which epidermal growth factor receptor is not blocked” value [4] was “greater than 50 μM”. For the same compound, the “Concentration at which insulin receptor is not blocked” value (insulin receptor) was “greater than 50 μM”, the “Survival and behavior in inhibitor solution” value [5] was “survived normally and demonstrated no unusual behavior” and the “Concentration that inhibits Flkl” value [6] was 10 to 20 µM. For the same compound, the “Concentration at which platelet-derived growth factor receptor is not blocked” value [7] was “greater than 50 μM” and the “Effects on activities of numerous serine threonine kinases” value (serine threonine kinases) was “no effects”.
